Experimental data from PMC8154419, “Druggable Hot Spots in the Schistosomiasis Cathepsin B1 Target Identified by Functional and Binding Mode Analysis of Potent Vinyl Sulfone Inhibitors” (ACS Infectious Diseases, 2020).
Several values for one entry are separate records, joined by “and”; a condition that tells them apart may be missing. Identical values can stand only once.

How the values were obtained:
SmCB1 [1] = molecular target: T1, SmCB1 (Schistosoma mansoni, UniProt Q8MNY2, T185A/T300A); assay: SmCB1 kinetic inhibition assay (IC50) with fluorogenic substrate Cbz–Phe–Arg–AMC; assay type: biochemical; settings: recombinant SmCB1, Cbz–Phe–Arg–AMC, pH 5.5; mean ± SE, triplicate; n.i.: no significant inhibition at 100 μM
T1 sequence (Q8MNY2 87-340 T185A/T300A): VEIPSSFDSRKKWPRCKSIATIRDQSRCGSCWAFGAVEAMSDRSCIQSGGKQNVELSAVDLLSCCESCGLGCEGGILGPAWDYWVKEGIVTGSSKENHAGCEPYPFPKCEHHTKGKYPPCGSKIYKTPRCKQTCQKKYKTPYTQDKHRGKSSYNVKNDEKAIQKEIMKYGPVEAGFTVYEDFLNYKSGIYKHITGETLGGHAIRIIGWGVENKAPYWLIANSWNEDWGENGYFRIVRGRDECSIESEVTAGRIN
Text: Thirty-four peptidomimetic vinyl sulfone analogs (including vinyl sulfonamides and vinyl sulfonate esters) were explored as potential inhibitors of SmCB1 to infer the structural requirements of the inhibitor-binding subsites in the enzyme active site cleft. The compound scaffold is defined by positions P3 through P1′, and the substitutions were selected to provide a high diversity at P2 and P1′ (Table 1). These two positions were recently reported to display large differences in the subsite interaction energy in response to their structural modifications.[10] The compounds were screened in vitro against recombinant SmCB1, and their IC50 values were determined using a kinetic inhibition assay with the fluorogenic substrate Cbz–Phe–Arg–AMC.
(§1) Inhibition measurements were performed in triplicates in 96-well microplates (100 μL assay volume) at 37 °C. […] The kinetics of product release was continuously monitored in an Infinite M1000 microplate reader (Tecan) at excitation and emission wavelengths of 360 and 465 nm, respectively. The IC50 values were determined by nonlinear regression using GraFit software. To determine the inhibition constant k2nd, the enzyme (40 pM SmCB1 or 60 pM HuCB) was added to a mixture of the fluorogenic substrate Cbz–Phe–Arg–AMC (20 μM for SmCB1 and 33 μM for HuCB) and an inhibitor (0–1 μM) in the assay buffer under assay conditions as above. The hydrolysis of substrate was monitored for 30 min in a microplate reader as described above. An observed rate constant, kobs, was calculated at each inhibitor concentration by fitting the progress curve to the equation P = vi/kobs(1 – e^–kobst), where P is the product formation, vi is the initial velocity, and t is the reaction time. For both enzymes, kobs varied linearly with the inhibitor concentration showing that the dependence of kobs on the inhibitor concentration is nonsaturating. […] The second order rate constant, k2nd, was determined by fitting to the linear equation kobs = (k2nd[I])/(1 + [S]/KM), where [S] is the substrate concentration, [I] is the inhibitor concentration, and KM is the Michaelis–Menten constant. KM values determined for SmCB1 and HuCB were 25 and 38 μM, respectively.

human cathepsin B (HuCB) = molecular target: T2, human cathepsin B (HuCB) (Homo sapiens, UniProt P07858); assay: Second order rate constant (k2nd) of inhibition, human cathepsin B; assay type: biochemical
T2 construct: purchased Calbiochem
Procedure: (§2) (A) Sensitivity of SmCB1 and its human ortholog cathepsin B (HuCB) to inhibitors. The second order rate constants were measured in a kinetic activity assay with the fluorogenic peptide substrate Cbz–Phe–Arg–AMC at pH 5.5. […] Resulting phenotypes observed at three time points were graded by the severity score ranging from 0 to 4, with 4 being the most severe (see Figure S2A,B).
as §1, with “above.” for “above. An observed rate constant, kobs, was calculated at each inhibitor concentration by fitting the progress curve to the equation P = vi/kobs(1 – e^–kobst), where P is the product formation, vi is the initial velocity, and t is the reaction time. For both enzymes, kobs varied linearly with the inhibitor concentration showing that the dependence of kobs on the inhibitor concentration is nonsaturating.”, “constant.” for “constant. KM values determined for SmCB1 and HuCB were 25 and 38 μM, respectively.”

[2] = In vitro plasma stability; assay type: in vitro ADME; settings: 5 μM inhibitor, pooled human plasma, 30 min, 37°C
Procedure: Finally, we evaluated the metabolic stability of the inhibitors in human plasma in vitro. The stability was expressed as the percentage of parental compound remaining in plasma after 30 min of incubation.
Figure S2. Antischistosomal activity, cytotoxicity, and plasma stability of selected vinyl sulfone inhibitors. A. Induction of phenotypic alterations by the inhibitors was determined with newly transformed schistosomula (NTS) of S. mansoni. The inhibitors were tested at 1 and 10 µM concentrations for 24, 48 and 72 h, and the resulting phenotypes are shown as descriptor s .2 B. Example of an inhibitor-induced phenotype in NTS of S. mansoni versus untreated controls. Images were captured using a Zeiss Axiovert 40 C inverted microscope (10x objective) and a Zeiss AxioCam MRc digital camera controlled by AxioVision 40 (v. 4.8.1.0) software. Scale bar = 0.2 mm. C. Cytotoxicity of the inhibitors towards four human cell lines expressed as % viability vs. untreated cells. Cells were treated with the indicated concentration of the compounds for 72 h and assayed by means of the XTT test (as described previously3). Standard deviation values were within 10% of the mean of tetraplicates. D. In vitro plasma stability was determined for 5 µM inhibitors incubated with pooled human plasma (Biowest) for 30 min at 37°C. The samples were deproteinized by acetonitrile a nd quantified by LC-MS (Exion LC AD/QTrap 6500+, AB Sciex). Data are expressed as a percentage of the remaining parent compound after 30 min incubation; standard deviations of the means ar e gi ve n for duplicate measurements.
(1 picture or pasted object on this page, not shown here)

SmCB1 [3] = assay: biochemical; assay type: biochemical, Schistosoma mansoni; settings: k2nd for SmCB1 to k2nd for human cathepsin B
Procedure: as §2
as §1, with “above.” for “above. An observed rate constant, kobs, was calculated at each inhibitor concentration by fitting the progress curve to the equation P = vi/kobs(1 – e^–kobst), where P is the product formation, vi is the initial velocity, and t is the reaction time. For both enzymes, kobs varied linearly with the inhibitor concentration showing that the dependence of kobs on the inhibitor concentration is nonsaturating.”, “constant.” for “constant. KM values determined for SmCB1 and HuCB were 25 and 38 μM, respectively.”

SmCB1 [4] = molecular target: T1, SmCB1; assay: biochemical; assay type: biochemical; settings: pH 5.5, read-out: second order rate constant k2nd SmCB1
Procedure: as §2
as §1, with “above.” for “above. An observed rate constant, kobs, was calculated at each inhibitor concentration by fitting the progress curve to the equation P = vi/kobs(1 – e^–kobst), where P is the product formation, vi is the initial velocity, and t is the reaction time. For both enzymes, kobs varied linearly with the inhibitor concentration showing that the dependence of kobs on the inhibitor concentration is nonsaturating.”, “constant.” for “constant. KM values determined for SmCB1 and HuCB were 25 and 38 μM, respectively.”

[5] = test system: S. mansoni newly transformed schistosomula (NTS); assay: Parasite assay and phenotype scoring of newly transformed schistosomula; assay type: cell-based, Schistosoma mansoni; settings: score 0 to 4, 4 most severe
Procedure: The NTS were exposed to 1 and 10 μM inhibitors, and the resulting phenotypes were graded 0 through 4 from the least to the most severe (Figure 4B).[25],[26] […] The investigated inhibitors were also tested for their cytotoxicity against four human cell lines over 72 h.
Newly transformed schistosomula (NTS) of S. mansoni were prepared by mechanically transforming infective larvae (cercariae) as described previously.[67] NTS (200–300 parasites) were incubated in 200 μL of Basch Medium 169[68] containing 5% heat-inactivated fetal bovine serum, 100 U/mL penicillin, and 100 μg/mL streptomycin at 5% CO2 and 37 °C.[67],[69] […] We use single word or phrase “descriptors”[35] to record changes in movement, shape, and translucence (Figure S2).
Figure S2. Antischistosomal activity, cytotoxicity, and plasma stability of selected vinyl sulfone inhibitors. A. Induction of phenotypic alterations by the inhibitors was determined with newly transformed schistosomula (NTS) of S. mansoni. The inhibitors were tested at 1 and 10 µM concentrations for 24, 48 and 72 h, and the resulting phenotypes are shown as descriptor s .2 B. Example […]
captured using a Zeiss Axiovert 40 C inverted microscope (10x objective) and a Zeiss AxioCam MRc digital camera controlled by AxioVision 40 (v. 4.8.1.0) software. Scale bar = 0.2 mm. C. […]

Row | Compound | IC50 (SmCB1 [1]) | further results
1 | O=C(N[C@H](/C=C/S(=O)(=O)c1ccccc1)CCc1ccccc1)[C@H](CCS(=O)(=O)c1ccccc1)NC(=O)N1CCOCC1 [CRA-009] | 186 ± 19 nM | 
2 | O=C(N[C@H](/C=C/S(=O)(=O)c1ccccc1)CCc1ccccc1)[C@H](CS(=O)(=O)Cc1ccccc1OC(F)F)NC(=O)N1CCOCC1 [CRA-012] | 477 ± 43 nM | 
3 | CCC[C@@H](/C=C/S(=O)(=O)c1ccccc1)NC(=O)[C@H](CC1CCCCC1)NC=NS(=O)(=O)c1ccccc1 [CRA-359] | 9990 ± 280 nM | 
4 | CCCC[C@@H](/C=C/S(=O)(=O)c1ccccc1)NC(=O)[C@H](Cc1cc(I)c(O)c(I)c1)NC(=O)OC(C)(C)C [CRA-372] | 6250 ± 322 nM | 
5 | CCCC[C@@H](/C=C/S(=O)(=O)c1ccccc1)NC(=O)[C@@H](N)Cc1cc(I)c(O)c(I)c1 [CRA-373] | 425 ± 46 nM | 
6 | CCC[C@@H](/C=C/S(=O)(=O)c1ccccc1)NC(=O)[C@H](Cc1ccccc1Cl)NC1=NS(=O)(=O)c2ccccc21 [CRA-383] | 10000 to 100000 nM | 
7 | CCC[C@@H](/C=C/S(=O)(=O)c1ccccc1)NC(=O)[C@H](CSCc1ccccn1)NC1=NS(=O)(=O)c2ccccc21 [CRA-393] | 3450 ± 346 nM | 
8 | O=C(N[C@@H](Cc1cc(I)c(O)c(I)c1)C(=O)N[C@H](/C=C/S(=O)(=O)c1ccccc1)CCc1ccccc1)c1ccc(N2CCOCC2)cc1 [CRA-422] | 665 ± 98 nM | 
9 | CCC[C@@H](/C=C/S(=O)(=O)c1ccccc1)NC(=O)[C@H](Cc1ccccc1)NC(=O)N1CCC(N2CCOCC2)CC1 [CRA-446] | 44.6 ± 6.1 nM | 
10 | CCC[C@@H](/C=C/S(=O)(=O)c1ccccc1)NC(=O)[C@H](Cc1ccc2ccccc2c1)NC(=O)N1CCC(N2CCOCC2)CC1 [CRA-547] | ~40 nM and 39.2 nM | 
11 | CCC[C@@H](/C=C/S(=O)(=O)c1ccccc1)NC(=O)[C@H](Cc1ccc(F)cc1)NC(=O)N1CCC(N2CCOCC2)CC1 [CRA-552] | 202 ± 25 nM | 
12 | CCCC[C@@H](/C=C/S(=O)(=O)c1ccccc1)NC(=O)[C@H](Cc1ccccc1)NC(=O)N1CCC(N2CCOCC2)CC1 [CRA-553] | 13.2 ± 1.3 nM | 
13 | O=C(N[C@H](/C=C/S(=O)(=O)c1ccccc1)CCc1ccccc1)[C@H](Cc1ccccc1)NC(=O)N1CCC(N2CCOCC2)CC1 [CRA-554] | 6 ± 0.89 nM | 
14 | CCC[C@@H](/C=C/S(=O)(=O)c1ccccc1)NC(=O)C1(NC(=O)N2CCN(C)CC2)CCCCC1 [CRA-555] |  | Inhibition IC50 (SmCB1 [1]): n.i.
15 | CCC[C@@H](/C=C/S(=O)(=O)c1ccccc1)NC(=O)[C@H](Cc1c(F)cccc1F)NC(=O)c1ccc(-c2ccccc2Cl)cc1 [CRA-845] |  | Inhibition IC50 (SmCB1 [1]): n.i.
16 | O=C(N[C@H](/C=C/S(=O)(=O)c1ccccc1)CCc1ccccc1)[C@H](CS(=O)(=O)Cc1ccccc1)NC(=O)N1CCOCC1 [CRA-891] | 212 ± 10 nM | 
17 | CCCC[C@@H](/C=C/S(=O)(=O)c1ccccc1)NC(=O)[C@H](Cc1ccccc1)NC(=O)N1CCC(N2CCCCC2)CC1 [CRA-892] | 7.5 ± 0.58 nM | 
18 | C[C@@H](/C=C/S(=O)(=O)NCCc1ccccc1)NC(=O)[C@H](Cc1ccccc1)NC(=O)OCc1ccccc1 [WRR-186] | 629 ± 57 nM | 
19 | C[C@@H](/C=C/S(=O)(=O)NCc1ccc(F)cc1)NC(=O)[C@H](Cc1ccccc1)NC(=O)OCc1ccccc1 [WRR-196] | 1250 ± 173 nM | 
20 | C[C@@H](/C=C/S(=O)(=O)NCc1ccc(F)cc1F)NC(=O)[C@H](Cc1ccccc1)NC(=O)OCc1ccccc1 [WRR-197] | 1130 ± 120 nM | 
21 | C[C@@H](/C=C/S(=O)(=O)Oc1ccccc1)NC(=O)[C@H](Cc1ccccc1)NC(=O)OCc1ccccc1 [WRR-199] | 2.55 ± 0.2 nM | 
22 | C[C@@H](/C=C/S(=O)(=O)NCc1ccc(Cl)cc1)NC(=O)[C@H](Cc1ccccc1)NC(=O)OCc1ccccc1 [WRR-201] | 541 ± 76 nM | 
23 | CNS(=O)(=O)/C=C/[C@H](C)NC(=O)[C@H](Cc1ccccc1)NC(=O)OCc1ccccc1 [WRR-206] | 93.7 ± 7.3 nM | 
24 | O=C(N[C@@H](Cc1ccccc1)C(=O)N[C@H](/C=C/S(=O)(=O)c1ccccn1)CCc1ccccc1)OCc1ccccc1 [WRR-255] | 1.5 ± 0.13 nM | 
25 | O=C(N[C@@H](Cc1ccccc1)C(=O)N[C@H](/C=C/S(=O)(=O)CCc1ccccc1)CCc1ccccc1)OCc1ccccc1 [WRR-257] | 9520 ± 607 nM | 
26 | O=C(N[C@@H](Cc1ccccc1)C(=O)N[C@H](/C=C/S(=O)(=O)Oc1ccc([N+](=O)[O-])cc1)CCc1ccccc1)OCc1ccccc1 [WRR-258] | 50.1 ± 4.9 nM | 
27 | CN1CCN(C(=O)N[C@@H](Cc2ccccc2)C(=O)N[C@H](/C=C/S(=O)(=O)NOCc2ccccc2)CCc2ccccc2)CC1 [WRR-286] | ~0.6 nM and 0.61 nM | second order rate constant k2nd HuCB (human cathepsin B (HuCB); Cbz–Phe–Arg–AMC, pH 5.5, mean of triplicate): 33 618 M^–1 s^–1; kinact/KI (human cathepsin B (HuCB); pH 5.5, read-out: second order rate constant k2nd HuCB): 33600 M⁻¹ s⁻¹; percentage of remaining parent compound in plasma [2]: 107%; selectivity ratio (SmCB1 [3]): about 6.0; kinact/KI (SmCB1 [4]): 200000 M⁻¹ s⁻¹; severity score ([5]; 1 μM, 24 hours): 0; severity score ([5]; 1 μM, 48 hours): 0; severity score ([5]; 1 μM, 72 hours): 4; severity score ([5]; 10 μM, 24 hours): 0; severity score ([5]; 10 μM, 48 hours): 4; severity score ([5]; 10 μM, 72 hours): 4
28 | CN1CCN(C(=O)N[C@@H](Cc2ccccc2)C(=O)N[C@H](/C=C/S(=O)(=O)Oc2ccc(F)cc2)CCc2ccccc2)CC1 [WRR-353] | 119 ± 16 nM | 
29 | CCOC(=O)C1CCN(C(=O)N[C@@H](CC2CCCCC2)C(=O)N[C@H](/C=C/S(=O)(=O)c2ccccc2)CCc2ccccc2)CC1 [WRR-436] | 72.1 ± 9.1 nM | 
